Paper PMC8967249, “Discovery of Novel HPK1 Inhibitors Through Structure-Based Virtual Screening” (Frontiers in Pharmacology, 2022)
Where two headings read alike, the source gives them in different places. One block for each compound: values may come before it.

Assays:
[1] = molecular target: T1, HPK1 kinase (Homo sapiens, UniProt Q92918); assay: In vitro HPK1 kinase inhibition assay (Caliper mobility shift assay); details: for inhibition at 50 µM: read-out: Inhibition (%) 50 μM, 50 μM, duplicate, mean ± SD
T1 sequence (Q92918 whole entry): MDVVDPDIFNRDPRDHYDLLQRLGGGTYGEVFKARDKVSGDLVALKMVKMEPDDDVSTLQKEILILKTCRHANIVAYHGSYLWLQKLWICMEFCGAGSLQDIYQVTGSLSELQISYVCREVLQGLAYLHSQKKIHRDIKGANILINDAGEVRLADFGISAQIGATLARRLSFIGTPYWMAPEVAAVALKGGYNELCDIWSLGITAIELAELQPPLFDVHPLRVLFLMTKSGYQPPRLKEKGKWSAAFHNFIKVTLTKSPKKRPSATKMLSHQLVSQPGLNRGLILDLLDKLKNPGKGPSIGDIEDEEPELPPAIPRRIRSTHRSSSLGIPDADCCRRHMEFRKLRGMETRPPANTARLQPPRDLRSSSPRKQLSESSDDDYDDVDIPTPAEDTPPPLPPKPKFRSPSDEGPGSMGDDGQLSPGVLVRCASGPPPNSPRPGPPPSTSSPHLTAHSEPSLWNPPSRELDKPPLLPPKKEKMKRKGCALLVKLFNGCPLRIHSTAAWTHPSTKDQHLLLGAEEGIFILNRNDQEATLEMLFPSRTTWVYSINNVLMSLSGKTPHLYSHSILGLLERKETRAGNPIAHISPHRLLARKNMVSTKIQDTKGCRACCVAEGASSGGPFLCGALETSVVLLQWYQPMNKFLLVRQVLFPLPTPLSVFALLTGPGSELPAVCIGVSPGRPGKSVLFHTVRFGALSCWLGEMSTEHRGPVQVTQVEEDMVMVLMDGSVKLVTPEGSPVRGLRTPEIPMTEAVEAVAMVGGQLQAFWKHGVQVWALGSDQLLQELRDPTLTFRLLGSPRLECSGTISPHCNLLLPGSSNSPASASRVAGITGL
Procedure: The mixture was centrifuged at 1,000 rpm for 30 s and then mixed and incubated at room temperature for 10 min. […] The plate was incubated at room temperature for 2 h. Finally, 30 μL terminated buffer was added to terminate the kinase reaction. Conversion rate data were read with Caliper EZ ReaderⅡ. The IC50 values of concentration-dependent curves were fitted by GraphPad Prism 6.0.

[2] = test system: HPK1; parameters: method as in Wu et al. (2019); details: ref Wu et al. (2019); cited from earlier work
[3] = molecular target: WT HPK1 kinase; parameters: method as in Johnson et al. (2019); details: WT HPK1 kinase in vitro; ref Johnson et al. (2019); read-out: inhibition constant (Ki); cited from earlier work
[4] = test system: SLP76; parameters: method as in Yu et al. (2021); details: SLP76 PBMC assay; ref Yu et al. (2021); cited from earlier work
[5] = molecular target: T1, HPK1 kinase; parameters: purchased Invitrogen PV6357; method as in Yu et al. (2021); details: ref Yu et al. (2021); cited from earlier work

IC50 [1]: 2930 ± 90 nM
SMILES: O=C1CCc2cc(NC(=O)c3n[nH]c4ccccc34)ccc2N1 [M074-2865]

IC50 [1]: 14300 ± 1070 nM | inhibition at 50 µM [1]: > 60%
SMILES: CCCC[C@@H](CC)CNC(=O)c1ccc(N/N=C2\C(=O)Nc3ccccc32)cc1 [V014-4726]

IC50 [1]: 9490 ± 540 nM
SMILES: Cc1cc(C)c2c(c1)/C(=N/Nc1ccc(C(=O)N3CCC[C@@H]3C)cc1)C(=O)N2 [V030-2005]

Further lines, the compound ahead of its results:

SMILES: O=C1Nc2ccc(Cl)cc2/C1=N/NC(=O)c1cc(Br)ccc1O [2395-0114]
IC50 [1]: 9590 ± 460 nM

SMILES: Cc1cccc(NC(=O)c2n[nH]c3ccccc23)c1 [8016-1815]
IC50 [1]: 7550 ± 560 nM | inhibition at 50 µM [1]: > 60%

SMILES: CC(C)n1ncc2cnc(Nc3cc(C4CCNC4)nc(N4CCC(F)(F)C4)n3)cc21 (centres unmarked) [GNE-1858]
IC50 [2]: 1.9 nM

SMILES: CCN(CC)CCNC(=O)c1c(C)[nH]c(/C=C2\C(=O)Nc3ccc(F)cc32)c1C [Sunitinib]
Ki [3]: ~10 nM

SMILES: COc1cccc(F)c1-c1cc2c(cn1)cnn2-c1cccc(N2CCN(C)CC2)n1 [XHS]
IC50 [4]: 600 nM | IC50 [5]: 2.6 nM
